One molecule from patent US20240166596A1, “SULFAMOYL BENZENE DERIVATIVES AND USES THEREOF” (AphioTx Inc., priority 2021, published 2024) can be followed below.

Assay type in all cases: in vivo
Assay [1] deals with C57BL/6J mice. The assay is described as follows: Naloxone-precipitated morphine withdrawal, composite withdrawal score. The note with it: for Withdrawal behaviors: 60 minutes prior to naloxone. The procedure:
Adult male C57BL/6J (7-9 weeks) mice were used. Mice were housed under 12/12 hour light/dark cycles with ad libitum access to food and water. Mice were randomly allocated to different test groups. All experiments were approved by the University of Calgary Animal Care Committee and are in accordance with the guidelines of the Canadian Council on Animal Care.
Morphine sulfate (MS, PCCA) prepared in 0.9% sterile saline solution was injected i.p. into male C57BLJ6J (20-30g) mice. Mice received ascending doses of morphine (i.p.) at 8 hours intervals: day 1, 10mg/kg; day 2, 20 mg/kg; day 3, 30 mg/kg; day 4, 40mg/kg. On day 5, mice received a morning injection of morphine (50 mg/kg). A subset of mice received probenecid (15, 25, and 50 mg/kg i.p., Invitrogen) or Compound 1 (0.1, 0.5 and 1 mg/kg) 1 hour following morphine. Mice then received i.p. naloxone (2 mg/kg, naloxone hydrochloride dihydrate, Sigma) 2 hours following morphine to rapidly induce opioid withdrawal. Control mice received equivalent volumes of 0.9% saline or appropriate vehicle solution (0.1% DMSO in saline) and were challenged with naloxone on day 5. Withdrawal behaviors were then scored for 30 minutes post naloxone injection. Behaviors were scored for occurrence and then scaled for severity at 5-minute intervals. Behaviors that were assigned a standardized score between 0-3 depending on severity were jumping, headshakes, wet-dog shakes, chewing/licking, and teeth chattering. Behaviors that were scored 1 point for presence during a 5-minute interval include piloerection and tremors/twitching. The mice were then weighed following the 30 minutes, and the weight difference was assigned a standardized score dependent on the weight change between 0-3 as well. The scaled and present/absent signs were compiled over the 30 minutes to produce a composite withdrawal score.
All data are presented as the mean±standard error mean (s.e.m), and each circle represents an individual animal or experiment. Tests of statistical difference were performed with GraphPad Prism 6 using either an ordinary one-way ANOVA with posthoc Dunnet test, or a two-way ANOVA with post hoc Sidak test. Sample sizes are consistent with those reported in similar studies and provide sufficient power to detect changes with the appropriate statistical analysis. For all experiments, a criterion a level was set at 0.05.

The subject of assay [2] is C57BL/6 mice. Briefly: Conditioned place aversion (CPA) after naloxone-precipitated withdrawal. The following applies: for CPA: 0.1 mg/kg i.p. as printed. An excerpt:
Adult male C57BL/6 mice (7-14 weeks old) were used for conditioned place aversion experiments (CPA). Animals were group housed under reverse light-dark cycle with ad libitum access to food and water and were randomly allocated to different test groups. All procedures were approved by the University of Calgary and Washington University Animal Care Committees and are in accordance with the guidelines of the Canadian Council on Animal Care and the US National Institutes of Health Guide for the Care of Use of Laboratory Animals.
Place conditioning was performed in a custom-built clear plexiglass apparatus (28×28×19 cm) divided into two conditioning chambers distinct in tactile and visual cues. All locomotor behaviours were recorded using monochrome GigE cameras and quantified offline using EthoVision XT 11 software (Noldus). The CPA score was calculated by subtracting time spent in the conditioned chamber during baseline (pre-test) from time spent in the same chamber postconditioning. Mice were placed in a two-chamber conditioning apparatus and allowed free access to both chambers for 15 min to assess baseline preference. Mice were treated with escalating doses of morphine, control animals received equivalent volumes of 0.9% sterile saline. Two hours after the final morphine or saline injection on day 5, mice were injected with naloxone and confined to one side of the conditioning apparatus for 30 min. The conditioned place aversion (CPA) test occurred 1 and 7 days post-conditioning, where mice were allowed free access to the conditioning apparatus for 15 min. […]
Unpaired t tests were applied to compare differences between two groups, one-way ANOVA with Bonferroni post hoc tests were applied to compare differences between three or more groups. […] All data are expressed as mean±SEM. […] After assessing the normality of sample data using Shapiro-Wilk test, statistical significance was determined by two-way repeated-measures ANOVA followed by two-tailed Sidak post hoc test. All data were presented as mean±SEM and analyzed using GraphPad Prism 9 (GraphPad Software, Inc., California).

Assay [3] concerns C57BL/6J mice. Briefly: Naloxone-precipitated morphine withdrawal, composite withdrawal score. The following applies: 0.5 mg/kg, 30 minutes before withdrawal.

With `CCCN(CCC)S(=O)(=O)c1ccc(C(O)(C(F)(F)F)C(F)(F)F)cc1` [Compound 1, 4-(1,1,1,3,3,3-hexafluoro-2-hydroxypropan-2-yl)-N,N-dipropylbenzenesulfonamide], the Withdrawal behaviors result is on record as “significantly attenuated” in assay [1] (0.1 mg/kg), “significantly attenuated” in assay [1] (0.5 mg/kg), “significantly attenuated” in assay [1] (1 mg/kg) and “not effective” in assay [3]. For the same molecule, the “Effective dose, fold lower than probenecid” value in assay [1] (0.1-1 mg/kg vs probenecid 50 mg/kg) was 50-500 fold. The CPA result in assay [2] (1 day after naloxone-precipitated withdrawal) is listed as “significantly less CPA”; in assay [2] (1 day and 7 days after naloxone-precipitated withdrawal), “significantly less CPA”. For the same molecule, the “CPA score (aversion to the naloxone-paired chamber)” value in assay [2] (0.5 mg/kg i.p., morphine-dependent mice, vs vehicle) is “significant reduction in aversion”.
